# Results reported in paper PMC8580996, “2-Oxoglutarate derivatives can selectively enhance or inhibit the activity of human oxygenases” (Nature Communications, 2021).
# Several values for one entry are separate records, joined by “and”; a condition that tells them apart may be missing. Equal values may be shown once.
# Legend:
# [1] = molecular target: T1, FIH (Homo sapiens, UniProt Q9NWT6); assay: Competition assay in a single reaction vessel, FIH-catalyzed hydroxylation (SPE-MS); format: biochemical; conditions: Fig 2c; for substrate hydroxylation (% conversion): 20 μM 1, FIH
# T1 sequence (Q9NWT6 whole entry): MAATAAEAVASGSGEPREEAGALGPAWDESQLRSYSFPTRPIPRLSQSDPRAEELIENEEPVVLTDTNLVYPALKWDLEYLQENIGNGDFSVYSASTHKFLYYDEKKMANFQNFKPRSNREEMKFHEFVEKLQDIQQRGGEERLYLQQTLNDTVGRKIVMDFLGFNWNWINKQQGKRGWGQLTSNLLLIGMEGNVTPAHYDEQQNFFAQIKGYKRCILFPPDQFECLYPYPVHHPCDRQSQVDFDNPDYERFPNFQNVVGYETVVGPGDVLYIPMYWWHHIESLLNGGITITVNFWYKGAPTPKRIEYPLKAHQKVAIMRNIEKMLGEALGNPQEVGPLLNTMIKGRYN
# [2] = molecular target: T2, AspH (Homo sapiens, UniProt Q12797); assay: Competition assay in a single reaction vessel, AspH-catalyzed hydroxylation (SPE-MS); format: biochemical; conditions: Fig 2c; for substrate hydroxylation (% conversion): 20 μM 1, AspH
# T2 construct: the tetratricopeptide repeat domain (His6-AspH315-758), was produced and purified as previously reported; made in house
# T2 sequence (Q12797 315-758): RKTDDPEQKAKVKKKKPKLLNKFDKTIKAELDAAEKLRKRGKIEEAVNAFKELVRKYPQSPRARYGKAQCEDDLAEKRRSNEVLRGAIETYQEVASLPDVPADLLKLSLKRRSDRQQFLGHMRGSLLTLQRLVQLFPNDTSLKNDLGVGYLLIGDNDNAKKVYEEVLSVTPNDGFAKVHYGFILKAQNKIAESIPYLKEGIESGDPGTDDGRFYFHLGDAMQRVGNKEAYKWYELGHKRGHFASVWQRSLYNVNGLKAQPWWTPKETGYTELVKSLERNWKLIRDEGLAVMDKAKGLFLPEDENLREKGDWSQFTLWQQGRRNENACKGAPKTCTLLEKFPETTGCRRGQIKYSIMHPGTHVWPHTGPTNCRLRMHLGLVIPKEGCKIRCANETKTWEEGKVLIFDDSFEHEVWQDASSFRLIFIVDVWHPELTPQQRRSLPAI
# [3] = molecular target: T1, FIH; assay: 1H NMR assay of FIH-catalyzed oxidative decarboxylation of cosubstrate, with SPE-MS of final mixture; format: biochemical; conditions: 5 μM FIH, 150 μM CA1-20, 150 μM cosubstrate
# Method: Supplementary Figure 2. […] FIH- […]
# catalyzed oxidative decarboxylation of 2OG was monitored using a Bruker AVIII 700 NMR machine equipped with a 5 mm 1H(13C/15N) inverse cryoprobe; spectra were analyzed using the Bruker TopSpin 3.6.1 software.
# 50 μM ammonium iron(II) sulfate hexahydrate (FAS, (NH4)2Fe(SO4)2·6H2O) in 50 mM aqueous Tris-d11 containing 10% v/v D2O (pH 7.5, 25° C). The ratio of the CA 1-20 peptide and the hydroxylated CA 1-20(Ox) peptide, which is the product of the F IH-catalyzed hydroxylation reaction, was determined using SPE-MS after NMR […]
# (a) Close-up (3.0-2.2 ppm) of the 1H NMR spectrum of commercial 2OG in 50 mM aqueous Tris-d11 containing 10%v/v D2O (pH 7.5, 25° C); (b) Close-up (3.0-2.2 ppm) of the 1H NMR spectrum of commercial succinate in 50 […]
# FIH-catalyzed oxidative decarboxylation of 3-methyl-2OG (1) was monitored using a Bruker AVIII 700 NMR machine equipped with a 5 mm 1H(13C/15N) inverse cryoprobe; spectra were analyzed using the […]
# Bruker TopSpin 3.6.1 software. […]
# in 50 mM aqueous Tris -d11 containing 10% v/v D2O (pH 7.5, 25° C). The ratio of the CA 1-20 peptide and the hydroxylated CA 1-20(Ox) peptide, which is the product of the FIH -catalyzed hydroxylation reaction, was […]
# (a) Close -up (3.4 -0.9 ppm) of the 1H NMR spectrum of synthetic 1 in 50 mM aqueous Tris-d11 containing 10% v/v D2O (pH 7.5, 2 5° C); ( b) Close -up (3.4 -0.9 ppm) of the 1H NMR spectrum of commercial 2 -methylsuccinate ( 36) […]
# FIH-catalyzed oxidative decarboxylation of 4-methyl-2OG (12) was monitored using a Bruker AVIII 700 NMR machine equipped with a 5 mm 1H(13C/15N) inverse cryoprobe; spectra were analyzed using the Bruker TopSpin 3.6.1 software.
# (NH4)2Fe(SO4)2·6H2O) in 50 mM aqueous Tris-d11 containing 10% v/v D2O (pH 7.5, 25° C). The ratio of the CA 1-20 peptide and the hydroxylated CA 1-20(Ox) peptide, which is the product of the FI H-catalyzed hydroxylation […]
# (a) Close -up (3.3 -0.9 ppm) of the 1H NMR spectrum of synthetic 12 in 50 mM aqueous Tris-d11 containing 10% v/v D2O (pH 7.5, 25° C); ( b) Close -up (3.4 -0.9 ppm) of the 1H NMR spectrum of commercial 2 -methylsuccinate ( 36)
# [4] = molecular target: T2, AspH; design: method as in PMID 34163896; conditions: hFX-CP101–119 substrate, 330 μM 2OG or 2OG derivative, t = 15 min; cited from earlier work
smiles,measurement,setting,value
"CC(CC(=O)O)C(=O)C(=O)O (stereo not shown) [compound 1, 3-methyl-2OG]",substrate hydroxylation (% conversion),[1]; 0 min,3.506 and 4.816 and 5.633
same,substrate hydroxylation (% conversion),[1]; 0.700167 min,19.4856 and 18.7444 and 19.2793
same,substrate hydroxylation (% conversion),[1]; 1.39933 min,32.3038 and 30.8139 and 30.8824
same,substrate hydroxylation (% conversion),[1]; 2.10017 min,43.2797 and 40.6551 and 40.5787
same,substrate hydroxylation (% conversion),[1]; 2.79917 min,51.3082 and 49.0078 and 49.2389
same,substrate hydroxylation (% conversion),[1]; 3.5005 min,58.9995 and 56.3411 and 56.671
same,substrate hydroxylation (% conversion),[1]; 4.20083 min,64.1723 and 62.5798 and 63.2033
same,substrate hydroxylation (% conversion),[1]; 4.9 min,69.5252 and 67.0447 and 68.2025
same,substrate hydroxylation (% conversion),[1]; 5.60117 min,73.4042 and 71.6094 and 72.347
same,substrate hydroxylation (% conversion),[1]; 6.29967 min,77.1725 and 74.6235 and 74.9327
same,substrate hydroxylation (% conversion),[1]; 7.00033 min,79.731 and 76.5169 and 77.4955
same,substrate hydroxylation (% conversion),[1]; 7.7025 min,81.4904 and 79.3791 and 79.9762
same,substrate hydroxylation (% conversion),[1]; 8.40233 min,83.8334 and 81.9815 and 82.8865
same,substrate hydroxylation (% conversion),[1]; 9.10283 min,86.0072 and 84.3134 and 84.9864
same,substrate hydroxylation (% conversion),[1]; 9.806 min,87.2729 and 86.3042 and 86.5893
same,substrate hydroxylation (% conversion),[1]; 11.207 min,89.9552 and 84.6882 and 85.7483
same,FIH-catalyzed CA1–20 hydroxylation,"[1]; 20 μM 1, after about 8 min",> 80%
same,substrate hydroxylation (% conversion),[2]; 3.5005 min,100
same,substrate hydroxylation (% conversion),[2]; 4.20083 min,100
same,substrate hydroxylation (% conversion),[2]; 5.60117 min,100
same,substrate hydroxylation (% conversion),[2]; 6.29967 min,100
same,substrate hydroxylation (% conversion),[2]; 7.00033 min,100
same,substrate hydroxylation (% conversion),[2]; 7.7025 min,100
same,substrate hydroxylation (% conversion),[2]; 8.40233 min,100
same,substrate hydroxylation (% conversion),[2]; 9.10283 min,100
same,substrate hydroxylation (% conversion),[2]; 9.806 min,100
same,substrate hydroxylation (% conversion),[2]; […],100
same,AspH-catalyzed hFX-EGFD1_86–124-4Ser hydroxylation,"[2]; 20 μM 1, within ~2 min",> 95%
same,hydroxylation of CA1-20 peptide in final reaction mixture (SPE-MS),[3]; t = 10 min,> 90%
same,FIH-catalyzed conversion of cosubstrate to succinate / 2-methylsuccinate (1H NMR),[3]; within 5 min,~ 70%
same,"AspH activity, %-substrate conversion",[4],>95%
